According to US20080140138A1, “Inhibition of inflammatory cytokine production by stimulation of brain muscarinic receptors” (priority 2002, published 2008):

Tests used:
LPS-induced TNF release = experiment: Conditioning (CNI-1493 with bell ringing), LPS-induced TNF release, L929 assay; format: in vivo, Mice; settings: CNI-1493 2.5 mg/kg i.p. with bell ringing vs. saline with bell ringing (Group 2 vs. Group 4; p=0.22); LPS 5 mg/kg i.p.
Procedure: Mice were grouped into four groups (n=4 animals/group). The conditioning training for Groups 2-4 consisted of morning and afternoon sessions. Mice in group 2 were together taken to a room, where each mouse was injected with CNI-1493 (2.5 mg/kg, i.p.). Simultaneously with the injection, each mouse was subjected to 45 seconds of bell ringing. Group 4 mice, similar to Group 2 mice, were subjected to control conditioning, whereby mice were injected with saline, instead of CNI-1493. Group 3 mice, like Group 2 mice, were subjected to saline injections but not bell ringing. This protocol was performed over a 10 day period, on days 1-4 and 8-10. On day 11, Group 1 mice were injected with CNI-1493 (2.5 mg/kg, i.p.). Also on day 11, 30 min after the Group 1 mice injections were performed, animals in all groups were injected with LPS (5 mg/kg, i.p.). After 2 hours, the mice were euthanized via CO2 inhalation, and blood was withdrawn. Serum TNF was determined by the L929 assay.

[1] = biological target: T1, Muscarinic, M3 (Human recombinant) (Homo sapiens, UniProt P20309); experiment: NovaScreen muscarinic receptor binding panel; settings: 10 μM, average of duplicate tubes
T1 construct: NovaScreen Biosciences Corporation (contract laboratory that ran the assay)
T1 sequence (P20309 whole entry): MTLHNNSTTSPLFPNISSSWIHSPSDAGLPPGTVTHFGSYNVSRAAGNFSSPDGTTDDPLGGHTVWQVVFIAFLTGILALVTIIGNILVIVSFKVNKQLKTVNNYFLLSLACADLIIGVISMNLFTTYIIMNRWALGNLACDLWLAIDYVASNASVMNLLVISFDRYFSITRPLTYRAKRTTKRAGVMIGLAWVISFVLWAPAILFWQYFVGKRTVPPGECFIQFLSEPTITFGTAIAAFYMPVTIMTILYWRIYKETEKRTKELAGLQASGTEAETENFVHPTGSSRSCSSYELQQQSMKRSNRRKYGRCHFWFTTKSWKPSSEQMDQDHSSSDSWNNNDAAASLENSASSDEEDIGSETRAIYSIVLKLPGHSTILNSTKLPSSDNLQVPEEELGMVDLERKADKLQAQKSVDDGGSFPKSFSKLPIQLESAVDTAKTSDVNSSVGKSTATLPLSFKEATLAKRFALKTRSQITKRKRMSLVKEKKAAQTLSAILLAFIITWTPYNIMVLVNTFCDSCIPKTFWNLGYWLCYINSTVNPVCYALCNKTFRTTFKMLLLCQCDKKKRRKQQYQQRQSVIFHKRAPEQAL
Procedure: (§1) Method of determining muscarinic receptor subtype. CNI-1493 was tested at a single concentration (10 μM) in a panel of muscarinic receptor binding assays by NovaScreen Biosciences Corporation (Hanover, Md.). Values were expressed as the percent inhibition of specific binding, and represented the average of duplicate tubes.

Muscarinic, M3 = experiment: NovaScreen muscarinic receptor binding panel; settings: 10 μM, average of duplicate tubes
Procedure: as §1

[2] = biological target: T2, Muscarinic, M5 (Human recombinant) (Homo sapiens, UniProt P08912); experiment: NovaScreen muscarinic receptor binding panel; settings: 10 μM, average of duplicate tubes
T2 construct: NovaScreen Biosciences Corporation (contract laboratory that ran the assay)
T2 sequence (P08912 whole entry): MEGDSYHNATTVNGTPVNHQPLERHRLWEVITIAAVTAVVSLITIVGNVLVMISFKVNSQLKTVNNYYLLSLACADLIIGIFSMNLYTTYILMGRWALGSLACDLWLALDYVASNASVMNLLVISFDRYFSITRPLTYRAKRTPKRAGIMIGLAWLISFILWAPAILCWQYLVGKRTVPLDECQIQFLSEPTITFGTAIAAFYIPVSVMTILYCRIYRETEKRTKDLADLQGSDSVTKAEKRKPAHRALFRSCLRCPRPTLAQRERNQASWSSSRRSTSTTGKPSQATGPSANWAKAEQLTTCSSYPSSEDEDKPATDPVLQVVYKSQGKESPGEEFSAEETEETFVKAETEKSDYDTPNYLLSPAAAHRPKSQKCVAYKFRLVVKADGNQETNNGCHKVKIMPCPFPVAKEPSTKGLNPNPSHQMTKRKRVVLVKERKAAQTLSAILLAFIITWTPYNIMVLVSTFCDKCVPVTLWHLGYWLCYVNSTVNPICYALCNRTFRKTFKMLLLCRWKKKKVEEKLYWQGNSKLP
Procedure: as §1

[3] = biological target: T3, Muscarinic, M4 (Human recombinant) (Homo sapiens, UniProt P08173); experiment: NovaScreen muscarinic receptor binding panel; settings: 10 μM, average of duplicate tubes
T3 construct: NovaScreen Biosciences Corporation (contract laboratory that ran the assay)
T3 sequence (P08173 whole entry): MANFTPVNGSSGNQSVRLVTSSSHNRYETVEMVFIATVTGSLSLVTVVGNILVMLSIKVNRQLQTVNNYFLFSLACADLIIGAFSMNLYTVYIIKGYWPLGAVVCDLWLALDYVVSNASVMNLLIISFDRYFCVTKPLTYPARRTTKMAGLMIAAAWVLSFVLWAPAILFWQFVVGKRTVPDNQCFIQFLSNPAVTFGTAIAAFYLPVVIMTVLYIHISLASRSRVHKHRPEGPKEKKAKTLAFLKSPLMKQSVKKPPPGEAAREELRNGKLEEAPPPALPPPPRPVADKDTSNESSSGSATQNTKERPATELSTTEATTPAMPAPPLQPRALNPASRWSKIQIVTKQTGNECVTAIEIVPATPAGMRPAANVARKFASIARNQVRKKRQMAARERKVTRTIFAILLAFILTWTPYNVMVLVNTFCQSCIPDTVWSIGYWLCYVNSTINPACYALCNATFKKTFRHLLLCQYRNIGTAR
Procedure: as §1

[4] = biological target: Muscarinic, M1 (Human recombinant) (Homo sapiens, UniProt P11229); experiment: NovaScreen muscarinic receptor binding panel; settings: 10 μM, average of duplicate tubes
Chain of Muscarinic, M1 (Human recombinant) (P11229 whole entry): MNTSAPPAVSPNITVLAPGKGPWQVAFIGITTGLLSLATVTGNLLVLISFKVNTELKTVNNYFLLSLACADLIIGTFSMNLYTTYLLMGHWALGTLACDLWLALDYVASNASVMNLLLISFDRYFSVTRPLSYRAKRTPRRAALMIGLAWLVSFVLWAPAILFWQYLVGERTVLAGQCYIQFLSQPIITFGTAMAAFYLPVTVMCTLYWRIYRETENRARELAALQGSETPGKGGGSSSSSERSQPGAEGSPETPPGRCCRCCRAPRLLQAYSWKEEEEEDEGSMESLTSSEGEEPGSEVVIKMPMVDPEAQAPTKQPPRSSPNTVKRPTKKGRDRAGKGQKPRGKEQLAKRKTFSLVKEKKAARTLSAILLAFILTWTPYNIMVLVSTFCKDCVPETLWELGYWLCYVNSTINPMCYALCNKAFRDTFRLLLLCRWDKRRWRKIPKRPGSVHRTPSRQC
Procedure: as §1

Muscarinic, M1 = experiment: NovaScreen muscarinic receptor binding panel; settings: 10 μM, average of duplicate tubes
Procedure: as §1

[5] = biological target: Muscarinic, M2 (Human recombinant) (Homo sapiens, UniProt P08172); experiment: NovaScreen muscarinic receptor binding panel; settings: 10 μM, average of duplicate tubes
Chain of Muscarinic, M2 (Human recombinant) (P08172 whole entry): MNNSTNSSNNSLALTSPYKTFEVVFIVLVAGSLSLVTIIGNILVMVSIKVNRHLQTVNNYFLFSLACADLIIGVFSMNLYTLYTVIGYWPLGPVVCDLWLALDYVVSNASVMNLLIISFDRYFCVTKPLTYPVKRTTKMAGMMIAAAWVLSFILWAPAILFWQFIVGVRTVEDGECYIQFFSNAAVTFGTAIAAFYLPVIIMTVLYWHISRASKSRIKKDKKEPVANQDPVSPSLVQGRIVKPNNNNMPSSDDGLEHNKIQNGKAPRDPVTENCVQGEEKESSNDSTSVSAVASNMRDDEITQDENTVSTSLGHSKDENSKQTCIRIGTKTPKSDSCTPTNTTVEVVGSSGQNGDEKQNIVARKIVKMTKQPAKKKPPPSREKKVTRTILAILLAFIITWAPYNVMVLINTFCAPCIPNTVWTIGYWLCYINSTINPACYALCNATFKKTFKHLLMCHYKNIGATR
Procedure: as §1

Muscarinic, M2 = experiment: NovaScreen muscarinic receptor binding panel; settings: 10 μM, average of duplicate tubes
Procedure: as §1

alpha 1 adrenergic = experiment: NovaScreen receptor binding panel, CNI-1493 at 10 μM; settings: average of duplicate tubes
Procedure: Method of determining CNI-1493 receptor binding. CNI-1493 was tested at a single concentration (10 μM) in a panel of receptor binding assays by NovaScreen Biosciences Corporation (Hanover, Md.). Values were expressed as the percent inhibition of specific binding, and represented the average of duplicate tubes. Method of stereotactic intracerebroventricular injections. A rat model of intracerebroventricular (i.c.v.) injections was established in order to be able to directly deliver pharmacological agents into the brain of rats. This was necessary in order to separate drug effects on peripheral inflammation that occurred through central versus peripheral mechanisms. Lewis rats were anaesthetized with urethane (1 g/kg, i.p.) and xylazine (15 mg/rat, i.m. (intramuscular)). Rats were then placed in a stereotactic head frame (Stoelting, Wood Dale, Ill., USA). The incisor bar was adjusted until the plane defined by the lambda and bregma was parallel to the base plate. For i.c.v. injections the needle of a Hamilton syringe (25 μl) was positioned stereotactically above the lateral ventricle (0.2 mm and 1.5 mm posterior to bregma, 3.2 mm below the dura.) Solutions of the drugs tested were prepared in sterile endotoxin-free water, at the specified concentrations, and a 10-μl injection/rat was administered over 2 min, 1 h prior to either carrageenan injection, or to LPS.

**Q.** What does the source list for `CC(=NNC(=N)N)c1cc(NC(=O)CCCCCCCCC(=O)Nc2cc(C(C)=NNC(=N)N)cc(C(C)=NNC(=N)N)c2)cc(C(C)=NNC(=N)N)c1.Cl.Cl.Cl.Cl` [CNI-1493, N,N′-bis(3,5-diacetylphenyl) decanediamide tetrakis (amidinohydrazone) tetrahydrochloride]?
**A.** reduction of mean LPS-induced TNF release by conditioning (LPS-induced TNF release): about 60%; Percent inhibition [1]: 40%; Percent inhibition (Muscarinic, M3): 9%; Percent inhibition [2]: 43%; Percent inhibition [3]: 57%; Percent inhibition [4]: 72%; Percent inhibition (Muscarinic, M1): 83%; Percent inhibition [5]: 58%; Percent inhibition (Muscarinic, M2): 85%; percent inhibition of specific binding (alpha 1 adrenergic): 89.7%
